This is an account of results in patent US8722937B2 (priority 2006, dated 2014).

The target in assay [1] is T1, FabH derived from E. coli (ecFabH) (Escherichia coli, UniProt P0A6R0).
T1 construct: polyhistidine (N); made in house; host or cells: E. coli
T1 sequence (P0A6R0 1-317): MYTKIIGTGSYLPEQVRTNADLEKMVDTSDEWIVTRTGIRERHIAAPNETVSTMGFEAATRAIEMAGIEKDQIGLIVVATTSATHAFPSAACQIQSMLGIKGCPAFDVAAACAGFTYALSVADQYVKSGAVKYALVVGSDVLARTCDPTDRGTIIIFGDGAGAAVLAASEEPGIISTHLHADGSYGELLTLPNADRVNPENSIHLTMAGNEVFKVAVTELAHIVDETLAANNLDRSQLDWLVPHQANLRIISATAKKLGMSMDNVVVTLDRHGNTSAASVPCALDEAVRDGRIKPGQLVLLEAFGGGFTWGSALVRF
The experiment in a line: FabH enzyme assay (coupled trichloroacetic acid precipitation assay), ecFabH. The class given is biochemical. As to conditions: for IC50: 15 min preincubation at 23° C., duplicate assays, read-out: IC50 against ecFabH.

Assay [2] addresses FabH derived from M. tuberculosis (mtFabH) (Mycobacterium tuberculosis, UniProt P9WNG3). Particulars: for IC50: read-out: IC50 against mtFabH.
Assay [3] has as its system S. aureus (ATCC 25923). Briefly: microbe, parasite or virus in culture. The class given is cell-based, Staphylococcus aureus. As to conditions: 24 h, 37° C.; for zone of inhibition at 20 µg/disc: Staphylococcus aureus, ATCC25923.
The subject of assay [4] is methicillin-resistant S. aureus (MRSA). The experiment in a line: microbe, parasite or virus in culture. The assay is classed as cell-based, Staphylococcus aureus. Particulars: 24 h, 37° C.
The subject of assay [5] is S. aureus (ATCC 25923). The experiment in a line: Agar dilution minimum inhibitory concentration (MIC), S. aureus. The assay is classed as cell-based, Staphylococcus aureus. Particulars: Staphylococcus aureus, ATCC25923; serial dilution in 24-well plate, NCCLS; read-out: Minimum inhibitory concentration (MIC) against S. aureus (ATCC 25923).
Assay [6] concerns B. anthracis (USF 848). The experiment in a line: microbe, parasite or virus in culture. As to conditions: Bacillus anthracis, 24 h, 37° C. The class given is cell-based, Bacillus anthracis.
Assay [7] has as its system B. anthracis (USF 848). The experiment in a line: microbe, parasite or virus in culture. The class given is cell-based, Bacillus anthracis. Particulars: Bacillus anthracis, read-out: Minimum inhibitory concentration (MIC) against B. anthracis (USF 848).
The test system of assay [8] is E. coli (K12; ATCC 23590). Briefly: Kirby-Bauer zones of inhibition, E. coli. The assay is classed as cell-based, Escherichia coli. As to conditions: K12 strain, ATCC 23590.
Assay [9] has as its system E. coli (K12; ATCC 23590). The experiment in a line: Minimum inhibitory concentration (MIC), E. coli. As to conditions: Escherichia coli, ATCC23590, read-out: MIC (μg/mL) against E. coli. The class given is cell-based.

Molecules are shown by their SMILES. ≈ marks a conversion by molar mass, not a printed value. Like-named read-outs stand apart in the source and are kept apart here.

Sequence of FabH derived from M. tuberculosis (mtFabH) (P9WNG3 whole entry): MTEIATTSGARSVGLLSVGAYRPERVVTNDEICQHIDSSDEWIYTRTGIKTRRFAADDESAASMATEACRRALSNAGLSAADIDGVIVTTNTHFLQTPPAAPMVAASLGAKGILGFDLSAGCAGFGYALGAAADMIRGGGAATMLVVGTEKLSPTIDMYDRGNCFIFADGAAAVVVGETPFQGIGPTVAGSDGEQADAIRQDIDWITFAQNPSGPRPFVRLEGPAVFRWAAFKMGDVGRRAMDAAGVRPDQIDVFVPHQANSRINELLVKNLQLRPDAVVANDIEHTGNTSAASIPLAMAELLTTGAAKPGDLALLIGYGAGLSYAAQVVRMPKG

As to `COC1C(=O)N(SC)C1c1ccccc1Cl` (stereo not drawn) [Compound 2a], the “Percent inhibition of ecFabH” value in assay [1] (1 μM of test compound) stood at 89%. Besides, the “Percent inhibition of mtFabH” value in [2] (10 µM) is recorded as 75%.

For the molecule `CSSCCNC(=O)CCNC(=O)[C@H](O)C(C)(C)COP(=O)(O)OP(=O)(O)OC[C@H]1O[C@@H](n2cnc3c(N)ncnc32)[C@H](O)[C@@H]1OP(=O)(O)O` [Compound 25a], the IC50 in assay [1] is 57.1 ± 4.48 µM; in assay [2], greater than 300 µM. Further, the “Zones of growth inhibition, S. aureus” value in assay [3] is 0 mm. Further, the “Zones of growth inhibition, MRSA” value in assay [4] is reported as 0 mm.

Take `CCC(C)SSCCNC(=O)CCNC(=O)[C@H](O)C(C)(C)COP(=O)(O)OP(=O)(O)OC[C@H]1O[C@@H](n2cnc3c(N)ncnc32)[C@H](O)[C@@H]1OP(=O)(O)O` (stereo partly drawn) [Compound 25c]: the IC50 in assay [1] and in assay [2] was greater than 300 µM each time. Also, in [3], the “Zones of growth inhibition, S. aureus” value is 0 mm. In [4], the “Zones of growth inhibition, MRSA” value was determined as 0 mm.

`CCCCSSCCNC(=O)CCNC(=O)[C@H](O)C(C)(C)COP(=O)(O)OP(=O)(O)OC[C@H]1O[C@@H](n2cnc3c(N)ncnc32)[C@H](O)[C@@H]1OP(=O)(O)O` [Compound 25d]: the IC50 in assay [1] and in assay [2] was greater than 300 µM throughout.

For `CCCCCCCCSSCCNC(=O)CCNC(=O)[C@H](O)C(C)(C)COP(=O)(O)OP(=O)(O)OC[C@H]1O[C@@H](n2cnc3c(N)ncnc32)[C@H](O)[C@@H]1OP(=O)(O)O` [Compound 25e], the IC50 in [1] was greater than 300 µM; in assay [2], 23.2 ± 4.6 µM.

Turning to `CCCCCCCCCCSSCCNC(=O)CCNC(=O)[C@H](O)C(C)(C)COP(=O)(O)OP(=O)(O)OC[C@H]1O[C@@H](n2cnc3c(N)ncnc32)[C@H](O)[C@@H]1OP(=O)(O)O` [Compound 25f], the IC50 in assay [1] is greater than 300 µM; in assay [2], 2.6 ± 1.6 µM.

With `CCSSc1ccc([N+](=O)[O-])cc1` [Compound 38b, Ethyl p-nitrophenyl Disulfide], in assay [1] (5 μM of test compound, read-out: Percent inhibition of FabH derived from E. coli, ecFabH (%)), the inhibition at 5 µM is 98%. Moreover, the zone of inhibition at 20 µg/disc in assay [3] (read-out: Zones of growth inhibition of S. aureus (ATCC 25923)) is 47 mm; in assay [3] (read-out: Zones of growth inhibition of S. aureus (ATCC 25923), areas of partial inhibition) it was 54 mm; in [4] (Staphylococcus aureus, MRSA, read-out: Average zones of growth inhibition of MRSA (USF-652-659, 919-920)), 38 mm; in [6] (read-out: Zones of growth inhibition of B. anthracis (USF 848)) it was 56 mm; in [6] (read-out: Zones of growth inhibition of B. anthracis (USF 848), areas of partial growth inhibition) it was 67 mm. The MIC in assay [5] is 32 µg/mL (≈ 149 µM); in assay [7], 0.25 µg/mL (≈ 1.16 µM); in assay [9] it was 16 µg/mL (≈ 74.3 µM). For the same molecule, in assay [8] (number in parentheses), the “Zone of Inhibition (mm), E. coli, zones of partial inhibition” value came out at 23 mm. Moreover, the “Zone of Inhibition (mm), E. coli” value in assay [8] (number outside parentheses) was determined as 15 mm.
